From BindingDB's records for doi:10.1124/jpet.105.096792 (University of Tours, 2006) come the findings set out here.

The target of the experiment is Sodium-dependent dopamine transporter (Rattus norvegicus, UniProt P23977).
Sodium-dependent dopamine transporter, sequence (P23977 whole entry): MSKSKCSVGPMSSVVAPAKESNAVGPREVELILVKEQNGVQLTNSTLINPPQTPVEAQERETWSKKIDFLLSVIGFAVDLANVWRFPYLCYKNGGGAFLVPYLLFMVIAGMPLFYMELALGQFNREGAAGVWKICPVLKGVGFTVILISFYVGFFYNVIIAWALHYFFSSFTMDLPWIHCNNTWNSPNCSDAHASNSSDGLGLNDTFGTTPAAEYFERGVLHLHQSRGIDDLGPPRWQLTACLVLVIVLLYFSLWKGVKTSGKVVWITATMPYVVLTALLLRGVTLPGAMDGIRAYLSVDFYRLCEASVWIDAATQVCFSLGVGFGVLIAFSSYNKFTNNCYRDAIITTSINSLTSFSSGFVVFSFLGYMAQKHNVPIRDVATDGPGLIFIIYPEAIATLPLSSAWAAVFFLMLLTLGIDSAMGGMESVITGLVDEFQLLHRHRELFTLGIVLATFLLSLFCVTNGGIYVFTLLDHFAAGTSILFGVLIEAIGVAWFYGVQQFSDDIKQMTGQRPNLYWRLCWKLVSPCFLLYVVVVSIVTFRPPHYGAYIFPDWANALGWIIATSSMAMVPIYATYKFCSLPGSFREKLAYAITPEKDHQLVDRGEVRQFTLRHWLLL

Regarding `COC(=O)[C@H]1[C@@H](c2ccc(C)cc2)C[C@@H]2CC[C@H]1N2C/C=C/I`, affinity was put at a Ki of 18 nM. The molecule `Cc1ccc(Sc2ccccc2CN(C)C)c(N)c1` [2-(2-Dimethylaminomethyl-phenylsulfanyl)-5-methyl-phenylamine] yielded a Ki of 1000 nM.

For orientation: Ki means a dissociation constant, usually derived from enzyme kinetics or from competition with a known ligand.
